The values that follow come from US20090155218A1, “COMPOSITIONS AND METHODS FOR GROWTH OF EMBRYONIC STEM CELLS” (priority 2004, published 2009).

Entries after “also recorded” stand apart in the source; their conditions may differ.

The test system of assay [1] is hES cells. Description: Proliferation assay, 3H thymidine incorporation. The assay is classed as cell-based, human. As to conditions: on laminin, 16 hours pulse, n=4. On the procedure:
Proliferation assay to quantify rates of proliferation under different culture conditions: Cells were cultured in 6 well plates on laminin in the presence of either FGF2-supplemented CM from feeder layers or activin A, KGF, NIC, or a combination of these 3 factors. Cultures were pulsed with 1 μCi/ml [methyl ^3H] thymidine (specific activity 6.7 Ci/mmol; MP Biomedicals, Irvine Calif.; www.mpbio.com) in newly replenished medium. After 16 hours, cells were harvested and thymidine incorporation into cells was quantified as previously described.^23 Briefly, DNA content was measured fluoremetrically, and incorporation of ^3H thymidine was determined by liquid scintillation counting of trichloracetic acid precipitates of the sonicated cells. Statistical significance of observed differences was determined by analysis of variance and Fischer's protected least significance difference test with a 95% level as the limit of significance using Statview IV (Abacus Concepts, Berkeley Calif.).

Assay [2] relates to HSF6 cells. Description: Follistatin added to HSF6 cells on mEFs (immunohistochemistry, RT-PCR). The assay is classed as cell-based, human. The note with it: on mEFs with follistatin. How it is done: (§1) Stem cell culture: hES cell line HSF6 was maintained on mitomycin C treated CF1 mouse feeder layers (mEF) at 37° C., 5% CO2 in DSR medium, which consisted of high glucose DMEM containing knockout serum replacer, glutamine, non-essential amino acids, 0.1 mM β-mercaptoethanol (all from Gibco, Carlsbad, Calif.; www.invitrogen.com) as previously described,^19 or on laminin (20 μg/ml, Chemicon, www.chemicon.com) coated dishes or in DSR containing 50 ng/ml human recombinant Activin A (ACT A), 50 ng/ml human recombinant Keratinocyte Growth Factor (KGF), both from Preprotech Inc. (Rocky Hill N.J.; www.preprotech.com). These concentrations were determined from previous experiments with human fetal pancreatic cell culture.^14, 20 In some experiments, 10 ng/ml human recombinant Bone Morphogenetic Protein 4 (BMP-4; R&D Systems Minneapolis, Minn. www.RnDSystems.com) was used to replace ACT A, and 0.4 μg/ml follistatin (R&D Systems) was added to ES cells grown on mEFs, sufficient to neutralize 50 ng/ml Act A according to the manufacturer's directions. Medium was changed every day on cells grown on mEFs and every other day, on cells grown on laminin with the growth factors. Cells were passaged weekly at 1:3 or 1:4 dilution.
In some experiments, 10 ng/ml human recombinant Bone Morphogenetic Protein 4 (BMP-4; R&D Systems Minneapolis, Minn. www.RnDSystems.com) was used to replace activin A, and 2 μg/ml recombinant mouse FS-288 follistatin (R&D Systems) was added to ES cells grown on mEFs, sufficient to neutralize 50 ng/ml activin A according to manufacturer's directions. Medium was changed every day on cells grown on mEFs or in CM and every other day, on cells grown on laminin with the growth factors. Cells were passaged weekly at 1:3 or 1:4 dilution by gentle treatment with 1 mg/ml Collagenase IV (Gibco BRL) for 5 minutes, followed by scraping.
Immunohistochemistry: Stem cell cultures were grown on coverslips coated with mEFs or laminin fixed with 4% paraformaldehyde and stained. Protein expression of the stem cell markers TRA-1-60 and Oct-4 was analyzed by immunohistochemistry using primary mouse anti-TRA-1-60 (Chemicon) and rabbit anti-OCT-4 antiserum (a generous gift from Dr Hans Scholer, U Penn). Control slides were incubated with mouse IgM and rabbit IgG. […]
Alternatively, hES cell cultures were grown on coverslips coated with mEFs or laminin, fixed with 4% paraformaldehyde and immunostained as previously described.^4 Protein expression of the stem cell markers TRA-1-60, SSEA-4 and Oct-4 was analyzed using primary mouse anti-TRA-1-60 IgM (Chemicon) mouse anti-SSEA-4 IgG3 (DSHB, U of Iowa, Iowa City, Iowa), and rabbit anti-Oct-4 antiserum (a generous gift from Dr Hans Scholer, U Penn). […]

Assay [3] concerns members of the BMP family. As to conditions: cited from earlier work.
Another assay concerns TGFβ. The note with it: cited from earlier work.
The next assay has as its target T1, activin A (Homo sapiens, UniProt P08476).
T1 sequence (P08476 311-426): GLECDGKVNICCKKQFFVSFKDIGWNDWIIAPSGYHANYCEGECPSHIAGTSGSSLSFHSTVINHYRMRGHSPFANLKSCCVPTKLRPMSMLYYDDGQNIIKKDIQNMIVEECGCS
The note with it: cited from earlier work.

Assay [4] has as its system HSF6 cells. Description: Immunohistochemistry of stem cell markers in hES cells grown on laminin. The assay is classed as cell-based, human. As to conditions: NK and A for 1 week. On the procedure: as §1
(§2) Alternatively, hES cell line HSF6 was maintained on mitomycin C treated CF1 mouse feeder layers (mEF) at 37° C., 5% CO2 in DSR medium as previously described^4. […]

The next assay concerns hES cell line HSF6. Description: Long-term feeder-free culture and passaging in the undifferentiated state. The assay is classed as cell-based, human. How it is done:
as §1
Alternatively, hES cell line HSF6 was maintained on mitomycin C treated CF1 mouse feeder layers (mEF) at 37° C., 5% CO2 in DSR medium as previously described^4. For the experiments described here, passage 43 hES cells were cultured on laminin (20 μg/ml, Chemicon, www.chemicon.com) coated dishes in the presence of conditioned medium from mEFs (CM) supplemented with 10 ng/ml basic fibroblast growth factor (FGF2; Preprotech Inc. Rocky Hill N.J.; www.preprotech.com), or on laminin in DSR medium containing 50 ng/ml human recombinant activin A, 50 ng/ml human recombinant KGF, both from Preprotech, and 10 mM Nicotinamide (NIC; Sigma Corp, St Louis Mo.). […]

The test system of assay [5] is HSF6 cells. Nature of the assay: Flow cytometric analysis of TRA-1-60 cell-surface antigen expression. As to conditions: activin removed from the culture for 1 week (NIC+KGF remain). The assay is classed as cell-based, human. On the procedure:
Alternatively, hES cell line HSF6 was maintained on mitomycin C treated CF1 mouse feeder layers (mEF) at 37° C., 5% CO2 in DSR medium as previously described^4. For the experiments described here, passage 43 hES cells were cultured on laminin (20 μg/ml, Chemicon, www.chemicon.com) coated dishes in the presence of conditioned medium from mEFs (CM) supplemented with 10 ng/ml basic fibroblast growth factor (FGF2; Preprotech Inc. Rocky Hill N.J.; www.preprotech.com), or on laminin in DSR medium containing 50 ng/ml human recombinant activin A, 50 ng/ml human recombinant KGF, both from Preprotech, and 10 mM Nicotinamide (NIC; Sigma Corp, St Louis Mo.).
Flow cytometric analysis: Flow cytometry was used to quantify undifferentiated cells under different culture conditions. Cells were harvested using a 60 minute collagenase treatment followed by shearing into a single cell suspensions and filtering using a 70 micron cell filter. Single cells from each condition were labeled with mouse anti TRA-1-60 or mouse IgM (for controls) and FITC-conjugated donkey anti-mouse IgM (Jackson Immunoresearch). Cells were analyzed using a Becton Dickinson FACScan, and cell-surface antigen expression quantitated using CellQuest software.
On the technique in general: A flow cytometer gives signals particle by particle.

In the next assay the test system is Smad2. Nature of the assay: Western blotting for phosphorylated Smad2. The assay is classed as cell-based, human. The note with it: HSF6 cells grown in the presence of Activin A. On the procedure:
Western blotting: Western blotting was used for phosphorylated Smad2, and was performed on lysates of HSF6 cells as previously described.^4 Cells cultured in the presence of activin A were lysed in detergent containing buffer supplemented with vanadate (10 μM) and microcystin (1 μM) and first blotted with phospho-Smad2 (ser465/467) antibody (Cell Signaling, cellsignal.com). Blots were then stripped and reprobed with Smad2 antibody (Cell Signaling).
For orientation: Immunoblotting shows a protein as a band on a membrane.

Assay [6] relates to hES cells. Description: Semi-quantitative RT-PCR of stem cell markers in hES cells grown on laminin. The assay is classed as cell-based, human. As to conditions: 1 week for NK and BMP-4 (10 ng/ml, replacing activin A). On the procedure:
as §1, §2

Consider `NC(=O)c1cccnc1` [NIC, nicotinamide, reference compound], for which the “proliferation rate (3H thymidine incorporation)” value with hES cells [1] was “intermediate”.
For follistatin, in the assay with HSF6 cells [2] (1 week), the “expression of oct-4 and nanog, RT-PCR” value is “absent (nanog) or markedly diminished (oct-4)”; the “staining for TRA-1-60 and Oct-4 (immunohistochemistry)” value is given as “lost staining for TRA-1-60 (cytoplasmic), with reduced staining for Oct-4”. Besides, in the assay on HSF6 cells [2] (2 weeks), the “expression of oct-4 and nanog, RT-PCR” value was “completely lost”; the “staining for Oct-4 (immunohistochemistry)” value was “Oct-4 immunoreactivity had completely disappeared”. Moreover, in assay [3], the “affinity for members of the BMP family” value is “lower affinity”. In the assay with TGFβ, the “binding to TGFβ” value is listed as “does not bind”. Moreover, on activin A, the “affinity for activin A” value is “extremely high affinity”.

B1: Activin A: human recombinant Activin A, TGFβ family member; homodimer of inhibin beta-A chain (protein)
chain: T1 sequence (P08476 311-426)
Regarding B1, in the assay with HSF6 cells [4], the “staining for TRA-1-60 and Oct-4 / phenotype (immunohistochemistry)” value is recorded as “no change in phenotype”. Further, in the assay on hES cell line HSF6 (dose response at 5, 50 and 100 ng/ml), the “concentration optimal to maintain the cells in an undifferentiated state” value was 50 ng/mL. Besides, in the assay with hES cell line HSF6 (on laminin), the “continued growth and passaging” value is listed as “could not be passaged further”. Besides, in the assay with hES cell line HSF6 (on laminin, without feeder layers, conditioned medium or STAT3 activation), the “passages of continuous growth in the undifferentiated state” value was “at least 10 passages”. For the same molecule, the “percentage of cells expressing TRA-1-60 after removal of activin” value in the assay on HSF6 cells [5] worked out at 3.9%. In the assay with hES cells [1], the “proliferation rate (3H thymidine incorporation)” value is given as “significantly reduced”. The Smad2 phosphorylation entry in the assay with Smad2 was “showing phospho-Smad 2”.

B2: BMP-4: human recombinant Bone Morphogenetic Protein 4, another TGFβ family member, used to replace activin A (protein, UniProt P12644 293-408, looked up)
Bone morphogenetic protein 4: SPKHHSQRARKKNKNCRRHSLYVDFSDVGWNDWIVAPPGYQAFYCHGDCPFPLADHLNSTNHAIVQTLVNSVNSSIPKACCVPTELSAISMLYLDEYDKVVLKNYQEMVVEGCGCR
For B2, the “expression of stem cell markers oct-4, nanog (telomerase), RT-PCR” value in the assay on hES cells [6] is “loss of expression for nanog, oct-4, and telomerase; also recorded: complete loss of expression for nanog and oct-4”.
